Experimental data as given in patent US20030235634A1, “Extraction of non-polar isothiocyanates from plants and dietary supplements containing same” (ACCESS BUSINESS GROUP INTERNATIONAL LLC., priority 2002, published 2003).
Like-named read-outs stand apart in the source and are kept apart here.

Legend:
[1] = Dissolution of purchased BITC and PEITC in safflower oil (how much can be stored in the oil); assay type: physicochemical; conditions: composition in safflower oil (78.91 % volume oil)
Description: BITC and PEITC were purchased from Aldrich (Sigma-Aldrich, Milwaukee, Wis.) and dissolved in safflower oil to determine how much of the non-polar isothiocyanates could be stored in the oil.

Solubility in water = test: Solubility in water
Method: Garden cress powder, prepared by drying at 45° C. and containing about […] BITC, and watercress powder, prepared by drying at 50° C. and containing about […] PEITC, were mixed in equal parts. From the mixture, 500 mg were added to a 50 mL conical vial to which 10 mL of water was added and the mixture homogenized for 2 minutes. The mixture was extracted twice with 10 mL safflower oil using homogenization at level 6 (Omni 5000 Mixer) for one minute and centrifuged for 3 minutes at 8,000×g. The oil fractions were collected, pooled and the volume brought up to 25 mL.

SMILES | % Volume [1] [% Volume] | ppm (mg/L) [1] | solubility in water (Solubility in water; water, no test described) | solubility in water (Solubility in water)
S=C=NCc1ccccc1 [BITC, Benzyl isothiocyanate] | 11.50 | 129,430 ppm (mg/L) | not soluble in water | 
S=C=NCCc1ccccc1 [PEITC, phenethyl isothiocyanate] | 9.59 | 104,540 ppm (mg/L) |  | not soluble in water
